Measurements taken from patent publication US20250230193A1, “CYCLIC COMPOUND HAVING SELECTIVE KRAS INHIBITORY EFFECT ON HRAS AND NRAS” (CHUGAI SEIYAKU KABUSHIKI KAISHA, priority 2022, published 2025).

What was measured:
[1] = target: GDP-bound NRAS wild-type protein (Homo sapiens, UniProt P01111); assay: Binding to NRAS by surface plasmon resonance (SPR), Single Cycle Kinetics; conditions: KD ratio, GDP-bound NRAS wild-type vs GDP-bound KRAS wild-type, SPR
[2] = target: GDP-bound HRAS wild-type protein (Homo sapiens, UniProt P01112); assay: Binding to HRAS by surface plasmon resonance (SPR), Single Cycle Kinetics; conditions: KD ratio, GDP-bound HRAS wild-type vs GDP-bound KRAS wild-type, SPR
Chain of GDP-bound HRAS wild-type protein (P01112 whole entry): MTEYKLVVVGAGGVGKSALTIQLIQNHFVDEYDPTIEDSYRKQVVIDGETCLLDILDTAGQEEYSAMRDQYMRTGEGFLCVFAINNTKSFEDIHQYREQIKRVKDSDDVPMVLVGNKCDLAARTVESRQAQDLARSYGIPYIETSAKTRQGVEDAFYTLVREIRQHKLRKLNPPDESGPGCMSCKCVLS

Chain of GDP-bound NRAS wild-type protein (P01111 whole entry): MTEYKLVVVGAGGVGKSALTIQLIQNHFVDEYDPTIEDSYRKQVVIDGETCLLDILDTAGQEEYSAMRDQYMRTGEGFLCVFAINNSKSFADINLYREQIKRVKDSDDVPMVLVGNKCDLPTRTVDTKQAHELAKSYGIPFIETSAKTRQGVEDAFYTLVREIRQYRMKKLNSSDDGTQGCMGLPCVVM

Row | Compound | NRAS/KRAS (ratio of KD value for NRAS to KD value for KRAS) [1] | HRAS/KRAS (ratio of KD value for HRAS to KD value for KRAS) [2]
1 | CCC[C@H]1C(=O)N[C@@H]([C@@H](C)CC)C(=O)N(C)CC(=O)N(C)[C@H]2C/C=C\CCN(C2=O)[C@@H](Cc2ccc(C(F)(F)F)cc2)C(=O)N(C)CC(=O)N[C@@H](CCc2cc(F)c(C(F)(F)F)c(F)c2)C(=O)N2CC(F)(F)C[C@H]2C(=O)NC2(CC(C)(C)C2)C(=O)N(C)[C@@H](C2CCCC2)C(=O)N(C)[C@H](C(=O)N(C)C)CC(=O)N1C [PP1711] | A (a compound having 10 or more and less than 20 is denoted as A) | B (a compound having 3 or more and less than 10 is denoted as B)
2 | CC[C@H](C)[C@@H]1NC(=O)[C@H](CC2CC2)N(C)C(=O)C[C@@H](C(=O)N(C)C)N(C)C(=O)[C@H](C2CCCC2)N(C)C(=O)C2(CC(C)(C)C2)NC(=O)[C@@H]2CC(F)(F)CN2C(=O)[C@H](CCc2cc(F)c(C(F)(F)F)c(F)c2)NC(=O)CN(C)C(=O)[C@H](Cc2ccc(C(F)(F)F)cc2)N2CC/C=C\C[C@@H](C2=O)N(C)C(=O)CN(C)C1=O [PP1713] | A (a compound having 10 or more and less than 20 is denoted as A) | A (a compound having 10 or more and less than 20 is denoted as A)
3 | CCCC[C@H]1C(=O)N[C@@H]([C@@H](C)CC)C(=O)N(C)CC(=O)N(C)[C@H]2C/C=C\CCN(C2=O)[C@@H](Cc2ccc(C(F)(F)F)cc2)C(=O)N(C)CC(=O)N[C@@H](CCc2cc(F)c(C(F)(F)F)c(F)c2)C(=O)N2CC(F)(F)C[C@H]2C(=O)NC2(CC(C)(C)C2)C(=O)N(C)[C@@H](C2CCCC2)C(=O)N(C)[C@H](C(=O)N(C)C)CC(=O)N1C [PP1714] | A (a compound having 10 or more and less than 20 is denoted as A) | A (a compound having 10 or more and less than 20 is denoted as A)
4 | CC[C@H](C)[C@@H]1NC(=O)[C@H](CC(C)C)N(C)C(=O)C[C@@H](C(=O)N(C)C)N(C)C(=O)[C@H](C2CCCC2)N(C)C(=O)C2(CC(C)(C)C2)NC(=O)[C@@H]2CC(F)(F)CN2C(=O)[C@H](CCc2cc(F)c(C(F)(F)F)c(F)c2)NC(=O)CN(C)C(=O)[C@H](Cc2ccc(C(F)(F)F)cc2)N2CC/C=C\C[C@@H](C2=O)N(C)C(=O)CN(C)C1=O [PP1715] | AA (a compound having 20 or more is denoted as AA) | A (a compound having 10 or more and less than 20 is denoted as A)
5 | CC[C@H](C)[C@@H]1NC(=O)[C@H](CC2CCC2)N(C)C(=O)C[C@@H](C(=O)N(C)C)N(C)C(=O)[C@H](C2CCCC2)N(C)C(=O)C2(CC(C)(C)C2)NC(=O)[C@@H]2CC(F)(F)CN2C(=O)[C@H](CCc2cc(F)c(C(F)(F)F)c(F)c2)NC(=O)CN(C)C(=O)[C@H](Cc2ccc(C(F)(F)F)cc2)N2CC/C=C\C[C@@H](C2=O)N(C)C(=O)CN(C)C1=O [PP1716] | AA (a compound having 20 or more is denoted as AA) | A (a compound having 10 or more and less than 20 is denoted as A)
6 | CC[C@H](C)[C@@H]1NC(=O)[C@H](COC)N(C)C(=O)C[C@@H](C(=O)N(C)C)N(C)C(=O)[C@H](C2CCCC2)N(C)C(=O)C2(CC(C)(C)C2)NC(=O)[C@@H]2CC(F)(F)CN2C(=O)[C@H](CCc2cc(F)c(C(F)(F)F)c(F)c2)NC(=O)CN(C)C(=O)[C@H](Cc2ccc(C(F)(F)F)cc2)N2CC/C=C\C[C@@H](C2=O)N(C)C(=O)CN(C)C1=O [PP1717] | A (a compound having 10 or more and less than 20 is denoted as A) | A (a compound having 10 or more and less than 20 is denoted as A)
7 | CCCOC[C@H]1C(=O)N[C@@H]([C@@H](C)CC)C(=O)N(C)CC(=O)N(C)[C@H]2C/C=C\CCN(C2=O)[C@@H](Cc2ccc(C(F)(F)F)cc2)C(=O)N(C)CC(=O)N[C@@H](CCc2cc(F)c(C(F)(F)F)c(F)c2)C(=O)N2CC(F)(F)C[C@H]2C(=O)NC2(CC(C)(C)C2)C(=O)N(C)[C@@H](C2CCCC2)C(=O)N(C)[C@H](C(=O)N(C)C)CC(=O)N1C [PP1718] | AA (a compound having 20 or more is denoted as AA) | A (a compound having 10 or more and less than 20 is denoted as A)
8 | CCCN(C)C(=O)[C@@H]1CC(=O)N(C)[C@@H](CC(F)F)C(=O)N[C@@H]([C@@H](C)CC)C(=O)N(C)CC(=O)N(C)[C@H]2C/C=C\CCN(C2=O)[C@@H](Cc2ccc(C(F)(F)F)cc2)C(=O)N(C)CC(=O)N[C@@H](CCc2cc(F)c(C(F)(F)F)c(F)c2)C(=O)N2CCC[C@H]2C(=O)NC2(CC(C)(C)C2)C(=O)N(C)[C@@H](C2CCCC2)C(=O)N1C [PP1721] | A (a compound having 10 or more and less than 20 is denoted as A) | A (a compound having 10 or more and less than 20 is denoted as A)
9 | CC[C@H](C)[C@@H]1NC(=O)[C@H](CC(F)(F)F)N(C)C(=O)C[C@@H](C(=O)N(C)C)N(C)C(=O)[C@H](C2CCCC2)N(C)C(=O)C2(CC(C)(C)C2)NC(=O)[C@@H]2CCCN2C(=O)[C@H](CCc2cc(F)c(C(F)(F)F)c(F)c2)NC(=O)CN(C)C(=O)[C@H](Cc2ccc(C(F)(F)F)cc2)N2CC/C=C\C[C@@H](C2=O)N(C)C(=O)CN(C)C1=O [PP1722] | AA (a compound having 20 or more is denoted as AA) | A (a compound having 10 or more and less than 20 is denoted as A)
10 | CC[C@H](C)[C@@H]1NC(=O)[C@H](CC(C)C)N(C)C(=O)C[C@@H](C(=O)N(C)C)N(C)C(=O)[C@H](C2CCCC2)N(C)C(=O)C2(CC(C)(C)C2)NC(=O)[C@@H]2CCCN2C(=O)[C@H](CCc2cc(F)c(C(F)(F)F)c(F)c2)NC(=O)CN(C)C(=O)[C@H](Cc2ccc(C(F)(F)F)cc2)N2CC/C=C\C[C@@H](C2=O)N(C)C(=O)CN(C)C1=O [PP1727] | A (a compound having 10 or more and less than 20 is denoted as A) | A (a compound having 10 or more and less than 20 is denoted as A)
11 | CC[C@H](C)[C@@H]1NC(=O)[C@H](CC2CCC2)N(C)C(=O)C[C@@H](C(=O)N(C)C)N(C)C(=O)[C@H](C2CCCC2)N(C)C(=O)C2(CC(C)(C)C2)NC(=O)[C@@H]2CCCN2C(=O)[C@H](CCc2cc(F)c(C(F)(F)F)c(F)c2)NC(=O)CN(C)C(=O)[C@H](Cc2ccc(C(F)(F)F)cc2)N2CC/C=C\C[C@@H](C2=O)N(C)C(=O)CN(C)C1=O [PP1728] | A (a compound having 10 or more and less than 20 is denoted as A) | A (a compound having 10 or more and less than 20 is denoted as A)
12 | CCCN(C)C(=O)[C@@H]1CC(=O)N(C)[C@@H](COC)C(=O)N[C@@H]([C@@H](C)CC)C(=O)N(C)CC(=O)N(C)[C@H]2C/C=C\CCN(C2=O)[C@@H](Cc2ccc(C(F)(F)F)cc2)C(=O)N(C)CC(=O)N[C@@H](CCc2cc(F)c(C(F)(F)F)c(F)c2)C(=O)N2CCC[C@H]2C(=O)NC2(CC(C)(C)C2)C(=O)N(C)[C@@H](C2CCCC2)C(=O)N1C [PP1729] | AA (a compound having 20 or more is denoted as AA) | A (a compound having 10 or more and less than 20 is denoted as A)
13 | CCCN(C)C(=O)[C@@H]1CC(=O)N(C)[C@@H](C)C(=O)N[C@@H]([C@@H](C)CC)C(=O)N(C)CC(=O)N(C)[C@H]2C/C=C\CCN(C2=O)[C@@H](Cc2ccc(C(F)(F)F)cc2)C(=O)N(C)CC(=O)N[C@@H](CCc2cc(F)c(C(F)(F)F)c(F)c2)C(=O)N2C[C@H](OCC)C[C@H]2C(=O)NC2(CC(F)(F)C2)C(=O)N(C)[C@@H](C2CCCC2)C(=O)N1C [PP1731] | A (a compound having 10 or more and less than 20 is denoted as A) | A (a compound having 10 or more and less than 20 is denoted as A)
14 | CCCN(C)C(=O)[C@@H]1CC(=O)N(C)[C@@H](CC)C(=O)N[C@@H]([C@@H](C)CC)C(=O)N(C)CC(=O)N(C)[C@H]2C/C=C\CCN(C2=O)[C@@H](Cc2ccc(C(F)(F)F)cc2)C(=O)N(C)CC(=O)N[C@@H](CCc2cc(F)c(C(F)(F)F)c(F)c2)C(=O)N2C[C@H](OCC)C[C@H]2C(=O)NC2(CC(F)(F)C2)C(=O)N(C)[C@@H](C2CCCC2)C(=O)N1C [PP1732] | AA (a compound having 20 or more is denoted as AA) | A (a compound having 10 or more and less than 20 is denoted as A)
15 | CCCN(C)C(=O)[C@@H]1CC(=O)N(C)[C@@H](CC(F)F)C(=O)N[C@@H]([C@@H](C)CC)C(=O)N(C)CC(=O)N(C)[C@H]2C/C=C\CCN(C2=O)[C@@H](Cc2ccc(C(F)(F)F)cc2)C(=O)N(C)CC(=O)N[C@@H](CCc2cc(F)c(C(F)(F)F)c(F)c2)C(=O)N2C[C@H](OCC)C[C@H]2C(=O)NC2(CC(F)(F)C2)C(=O)N(C)[C@@H](C2CCCC2)C(=O)N1C [PP1733] | A (a compound having 10 or more and less than 20 is denoted as A) | A (a compound having 10 or more and less than 20 is denoted as A)
16 | CCCN(C)C(=O)[C@@H]1CC(=O)N(C)[C@@H](CC(F)(F)F)C(=O)N[C@@H]([C@@H](C)CC)C(=O)N(C)CC(=O)N(C)[C@H]2C/C=C\CCN(C2=O)[C@@H](Cc2ccc(C(F)(F)F)cc2)C(=O)N(C)CC(=O)N[C@@H](CCc2cc(F)c(C(F)(F)F)c(F)c2)C(=O)N2C[C@H](OCC)C[C@H]2C(=O)NC2(CC(F)(F)C2)C(=O)N(C)[C@@H](C2CCCC2)C(=O)N1C [PP1734] | A (a compound having 10 or more and less than 20 is denoted as A) | A (a compound having 10 or more and less than 20 is denoted as A)
